Test results: patent US12630542B2, “Compounds and their use as therapeutically active substances in the treatment and/or prevention of diseases involving the retinal pigment epithelium” (ENDOGENA THERAPEUTICS, INC., priority 2020, dated 2026)

Test system: iPSC-fRPE cells
Experiment: Compound screen for RPE pigmentation in iPSC-fRPE cells (light absorbance at 510 nm)
Format: cell-based, human
Settings: for Relative Pigmentation: test compound 5 μM in 0.1% DMSO, 32 days, absorbance at 510 nm, relative to plate internal DMSO controls (control = 1); for pigmentation of RPE cells / activity, result in words: qualitative statement
Experimental: Induced pluripotent stem cell-derived fetal RPE (iPSC-fRPE) cells acquired from the University of California, Santa Barbara, were generated from human fetal RPE cells that were isolated and reprogramed to iPSC, then differentiated and sorted for cellular markers to collect RPE progenitors. Vials were transported frozen on dry ice and stored in minus 80° C.
For the phenotypic screens, iPSC-fRPE cells were thawed and cultured in Matrigel-coated flasks with N1VA media containing 1×MEM solution supplemented with 2.2 g/L Sodium Bicarbonate, 0.25 mg/ml Taurine, 0.02 ug/ml Hydrocortisone, 0.013 ug/ml Triiodo Thyronine, 0.1 ug/ml Lipoic acid, 1% MEM Non-Essential Amino Acids, 1% Penicillin/Streptomycin, 2% Neurocult SM1 supplement and 1% N1 supplement. For the initial cultures, Thiazovivin was added to the media at 2 uM for the first 24 hr of incubation, after which the media was replaced with fresh N1VA media for additional three-day incubation at 37° C. with 5% CO2.
iPSC-fRPE cells were plated with N1VA media at a density of 10,000 cells per well in Matrigel-coated 96-well plates and cultured for 24 hr prior to the treatment with test compounds at a final concentration of 5 μM in 0.1% DMSO. Internal controls for each test plate were (a) 0.1% DMSO as a negative control and (b) 0.1% DMSO+10 ng/ml human recombinant bFGF (STEMCELL) as a positive control. To identify hits that promote RPE pigmentation, cells were maintained for a period of 32 days and treated with medium containing the test or control compounds according to the media exchange regimen (FIG. 1). The degree of pigmentation was quantified by measuring the light absorbance at 510 nm with Cytation5 imaging reader (BIOTEK). Compounds that increased the normalized absorbance endpoint by more than three standard deviations over the average DMSO readout per plate were considered as hits. Pigmentation values are finally reported relative to plate internal DMSO controls.

Row | Molecule | Relative Pigmentation | pigmentation of RPE cells / activity, result in words
1 | O=C(Nc1ccc(-c2cnco2)c(Cl)c1)C1Cc2ccccc2CO1 (racemic) [Compound 3, N-(3-chloro-4-(oxazol-5-yl)phenyl)isochromane-3-carboxamide] | 1.66 | 
2 | O=C(Nc1ccc(-c2cnco2)c(Cl)c1)C1CCOc2ccccc21 (racemic) [Compound 4, N-(3-chloro-4-(oxazol-5-yl)phenyl) chromane-4-carboxamide] | 2.65 | 
3 | O=C(Nc1ccc(-c2cnco2)c(Cl)c1)C1CCc2ccccc21 (racemic) [Compound 6, N-(3-chloro-4-(oxazol-5-yl)phenyl)-2,3-dihydro-1H-indene-1-carboxamide] | 1.86 | 
4 | O=C(Nc1ccc(-c2cnco2)c(Cl)c1)C1COc2ccccc2C1 (single isomer, unassigned; (+)) [Compound 2, (+)-N-(3-chloro-4-(1,3-oxazol-5-yl)phenyl)chromane-3-carboxamide] | 1.68 | 
5 | O=C(Nc1ccc(-c2cnco2)c(Cl)c1)C1COc2ccccc2C1 (single isomer, unassigned; (-)) [Compound 1, (−)-N-(3-chloro-4-(1,3-oxazol-5-yl)phenyl)chromane-3-carboxamide] | 3.05 | excellent results
6 | O=C(Nc1ccc(-c2cnco2)c(Cl)c1)C1Cc2ccccc2C1 [Compound 7, N-(3-chloro-4-(oxazol-5-yl)phenyl)-2,3-dihydro-1H-indene-2-carboxamide] | 2.92 | excellent results
7 | N-(3-chloro-4-(oxazol-5-yl)phenyl)-1,2,3,4-tetrahydronaphthalene-2-carboxamide [Compound 5] | 1.18 | 
